ChEMBL document CHEMBL1287757, “Straightforward synthesis of triazoloacyclonucleotide phosphonates as potential HCV inhibitors” (Bioorg Med Chem Lett, 2010)
Active and inactive are the calls of the source. The calls are words filed in the database; no cut-off is given here.

Tests used:
[1] = Cytotoxicity against human HuH5.2 cells; type: cell-based, Huh-5-2
[2] = Selectivity ratio, ratio of CC50 for Huh5.2 cells to IC50 for HCV infected in Huh5.2 cells; type: cell-based; details: human, Huh5.2 cells (CC50) and HCV-infected Huh5.2 cells (IC50)
Hepatitis C virus [3] = assay: Antiviral activity against HCV infected in Huh5.2 cells assessed as inhibition of viral replication by luciferase reporter gene assay; type: functional, organism-based, Hepacivirus hominis; details: Huh-5-2
[4] = test system: Human immunodeficiency virus; assay: Antiviral activity against HIV assessed as inhibition of viral replication; type: functional, organism-based
Hepatitis C virus [5] = assay: Antiviral activity against HCV infected in Huh5.2 cells assessed as concentration required to inhibit viral replication without causing an antimetabolic effect; type: functional, Hepacivirus hominis

| SMILES | IC50 (Hepatitis C virus [3]) [µM] | CC50 [1] [µM] | selectivity ratio [2] | Activity [4] | Imax (Hepatitis C virus [5]) [%] |
| --- | --- | --- | --- | --- | --- |
| Cc1cn(Cc2cn(CP(=O)(O)O)nn2)c(=O)[nH]c1=O | 26 | > 300 | > 13 | inactive |  |
| O=c1ccn(Cc2cn(CP(=O)(O)O)nn2)c(=O)[nH]1 | 29 | 131 | 4.42 | inactive |  |
| Nc1ncnc2c1ncn2Cc1cn(CCP(=O)(O)O)nn1 | > 35 | 35 | < 1 | inactive |  |

Molecules with a lower IC50 (Hepatitis C virus [3]), results first:

| IC50 (Hepatitis C virus [3]) [µM] | SMILES | CC50 [1] [µM] | selectivity ratio [2] | Activity [4] | Imax (Hepatitis C virus [5]) [%] |
| --- | --- | --- | --- | --- | --- |
| 16 | O=c1ccn(Cc2cn(CCP(=O)(O)O)nn2)c(=O)[nH]1 | > 300 | > 20 | inactive | 75.47 |
| 20 | Cc1cn(Cc2cn(CCP(=O)(O)O)nn2)c(=O)[nH]c1=O | > 300 | > 15 | inactive | 79.28 |
| 16 | Nc1ncnc2c1ncn2Cc1cn(CP(=O)(O)O)nn1 | > 300 | > 20 | inactive | 80.65 |
